Source: patent publication US6291432A (Japan Energy Corporation, priority 1996, dated 2001)
In brackets after ≈: the same amount, converted by molar mass.

Tests used:
CEM-SS cell = experiment: Cytotoxicity in HIV virus non-infected CEM-SS cells (XTT method); format: cell-based; settings: six days, highest concentration 1.0 μg/ml
Description: (§1) EP 0751145 A2). On a 96-well micro titre plate, the test compounds were added to the culture medium in various concentrations, then the HIV infected CEM-SS cell was added and incubated for six days at 37° C. using a CO2 incubator. The number of the living cells was then measured by a XTT method. On the other hand, in order to examine the cytotoxicity of the test compounds, the test compounds were added in various concentrations and the HIV virus non-infected cell was incubated under similar conditions. As the reference group, the HIV infected CEM-SS cell was incubated without the addition of the test compounds. Moreover, the HIV virus non-infected cell was incubated without the addition of the test compound as the control group. The anti-virus activity was evaluated in a concentration in which the cytotoxic effect caused by the HIV infected virus in the above HIV infected cell group was inhibited 50 percent (EC50, 50% effective concentration), and the cytotoxicity was evaluated in a concentration in which the cytotoxic effect by the addition of the test compound in the HIV virus non-infected cell group occurred at 50 percent (TC50, 50% cytotoxic concentration) respectively.

[1] = Pharmacokinetics test (digestive tract absorption and metabolic characteristics) in rats; format: in vivo; settings: 10 mg/kg; for F (biological utilization rate of administration in the duodenum): Id versus Iv; for MRT / T1/2 (λ): Iv; for T1/2 (λ): final phase half-life
Description: The metabolic characteristics of the tripeptide compound of the present invention were evaluated using rats for a test animal. As the Control Example, the result of KNI-272 ((R)-N-tert-butyl-3-{(2S,3S)-2-hydroxy-3-[N-(isoquinolin-5-yloxy)acetyl-me thylthio-L-alanyl]amino-4-phenylbutanoyl}-1,3-thiazolidine-4-carboxamide; iQoa-Mta-Apns-Thz-NHtBu) which is a tripeptide derivative known in the art, is also shown. The amount administred was 10 mg/kg. The evaluated administration methods are a method (id) of administering a solution of a fixed amount of the test compound in the duodenum of a test animal, and a method (iv) of administering the solution intravenously. After administration, blood samples were taken from the test animal and concentrations of the residual test compound in the plasma were analyzed. As indices concerning pharmacokinetics, AUC (area under medicine concentration curve in plasma), MRT (mean residence time), t1/2 (λ) (final phase half-life period), and the biological utilization rate of administration in the duodenum F were calculated.

[2] = target: T1, recombinant HIV-1 protease (Human immunodeficiency virus type 1 group M subtype B, UniProt P04585); experiment: HIV protease inhibition activity (enzyme activity inhibition rate); format: biochemical; settings: 50 nM final concentration of test compound; 60 min at 37° C.; read-out: Enzyme activity inhibition rate (%) (addition concentration of 50 nM)
T1 construct: measured using a recombinant HIV-1 protease
Description: The protease activity was measured using a recombinant HIV-1 protease (see Biochemistry, 250 (9)-264 (1990)) and a synthesized peptide substrate. The inhibition rate was calculated by determining a peptide fragment generated by cleavage between Tyr-Pro of the synthesized substrate after the reaction of 60 min at 37° C. using a reversed phase HPLC in the presence of the test compounds in various concentrations (see, for example, Japanese Patent Application Laid-open No. 170722/1993).
Examples of the evaluation results of the HIV protease inhibition activity of the tripeptide compound of the present invention by the above-described method is shown in Table 1. […] The concentration of the test compounds in Table 1 represents the final concentration in the reaction mixture.

[3] = test system: HIV virus strain HIV-1 IIIB; experiment: Anti-HIV activity in HIV infected CEM-SS cells (XTT method); format: cell-based; settings: Human immunodeficiency virus 1, 144 h, HIV-1 IIIB infected CEM-SS cell, six days at 37° C.
Description: as §1

[4] = target: T1, recombinant HIV-1 protease; experiment: Evaluation of enzyme inhibition constant Ki; format: biochemical
Description: The synthesized peptide substrate having a sequence of H-Lys-Ala-Arg-Val-Tyr-Phe (4-NO2)-Glu-Ala-Nle-NH2 (SEQ ID NO. 1) was used in this experiment. The enzyme reaction was measured using a reversed phase HPLC by determining the C-terminal peptide fraction produced by cleavage just behind Tyr in the synthesized substrate which is obtained by reacting the following composition for 15 min. at 37° C. and stopping the reaction by the addition of 1N HCl (75 μl).
Composition of reaction mixture
Recombinant HIV-1 protease enzyme solution 10 μl
0.5 mM synthetic substrate aqueous solution 10 μl
DMSO Inhibitor solution 5 μl
0.2 M MES solution 25 μl
(1 M NaCl, 2 mM EDTA-2Na, 2 mM DTT, pH 5.5)
Column: Waters Nova-pak C18 (3.9×75 mm)
Eluent: A; water (0.1% TFA)
B; acetonitrile (0.1% TFA)
Flow rate: 2 ml/min isocratic; 10% B solution
Detection: Fluorescence 305 nm, excitation 275 nm

Row | Compound | Cytotoxicity TC50 (CEM-SS cell) [µg/mL] | AUC ([1]; Id (in the duodenum)) [µg·min/mL] | F (biological utilization rate of administration in the duodenum) [1] [%] | MRT [1] [h] | AUC ([1]; Iv (intravenous)) [µg·min/mL] | T1/2 (λ) [1] [h] | inhibition at 0.05 µM [2] [%] | EC50 [3] [µg/mL] | Ki [4] [nM]
1 | COc1cccc2cc(C(=O)N[C@H](C(=O)N[C@@H](Cc3ccccc3)[C@H](O)C(=O)N3CSC(C)(C)[C@H]3C(=O)NCc3ccccc3C)C(C)C)oc12 [Example 16, (R)-N-(2-methylbenzyl)-3-{(2S,3S)-3-[N-(7-methoxybenzofuran-2-carbonyl)-L-valyl]amino-2-hydroxy-4-phenylbutanoyl}-5,5-dimethyl-1,3-thiazolidine-4-carb oxamide] | > 1.0 | 90 | 27 | 1.12 | 322 | 1.23 | 97.1 | 0.0017 (≈ 0.00238 µM) | 0.014
2 | COC(=O)N[C@H](C(=O)N[C@@H](Cc1ccccc1)[C@H](O)C(=O)N1CSC(C)(C)[C@H]1C(=O)NCc1ccccc1C)C(C)C [Example 27, (R)-N-(2-methylbenzyl)-3-{(2S,3S)-2-hydroxy-3-[(S)-2-(methoxycarbonyl)amino-3-methylbutanoyl]amino-4-phenylbutanoyl}-5,5-dimethyl-1,3-thiazolidine-4-c arboxamide] | > 1.0 | 87 | 32 | 1.18 | 272 | 1.45 | 94.9 | 0.026 (≈ 0.0434 µM) | 
3 | CC(C)[C@H](NC(=O)COc1cccc(N(C)C)c1)C(=O)N[C@@H](Cc1ccccc1)[C@H](O)C(=O)N1CSC(C)(C)[C@H]1C(=O)NC(C)(C)C [Example 35, (R)-N-tert-butyl-3-{(2S,3S)-2-hydroxy-3-[(S)-2-(3-dimethylaminophenoxyacetyl)amino-3-methylbutanoyl]amino-4-phenylbutanoyl}-5,5-dimethyl-1,3-thiazolidine-4-carboxamide] | > 1.0 | 105 | 89 | 1.13 | 119 | 1.05 | 96 | 0.01 (≈ 0.0149 µM) | 0.07
4 | CC[C@H](NC(=O)COc1cccc(N(C)C)c1)C(=O)N[C@@H](Cc1ccccc1)[C@H](O)C(=O)N1CSC(C)(C)[C@H]1C(=O)NC(C)(C)C [Example 36, (R)-N-tert-butyl-3-{(2S,3S)-2-hydroxy-3-[(S)-2-(3-dimethylaminophenoxyacetyl)aminobutanoyl]amino-4-phenylbutanoyl}-5,5-dimethyl-1,3-thiazolidine-4-car boxamide] | > 1.0 | 185 | 82 | 2.07 | 226 | 1.83 | 95 | 0.017 (≈ 0.0259 µM) | 
